In article PMC8657855 (International Journal of Molecular Sciences, 2021):
≈ marks a conversion by molar mass, not a printed value.

Key:
Experiment in all cases: microbe, parasite or virus in culture
[1] = system: Xanthomonas oryzae pv. oryzae Xoo; details: read-out: EC50 (mg/L) Xoo
[2] = system: Xanthomonas oryzae pv. oryzicola Xoc; details: read-out: EC50 (mg/L) Xoc
[3] = system: Xanthomonas oryzae pv. oryzae Xoo
[4] = system: Xanthomonas oryzae pv. oryzicola Xoc
[5] = read-out: Inhibition (%) 10 (mg/L)
[6] = read-out: Inhibition (%) 50 (mg/L)

## CS(=O)(=O)c1nnc(CNC(=O)c2ccc(F)cc2)o1 [compound 26, 4-fluoro-N-((5-(methylsulfonyl)-1,3,4-oxadiazol-2-yl)methyl)benzamide]
[1]
  EC50: 0.61 ± 0.03 mg/L (≈ 2.04 µM)
[2]
  EC50: 2.3 ± 0.06 mg/L (≈ 7.69 µM)
[3]; [5]
  inhibition at 10 µg/mL: 99.4 ± 0.2%
[3]; [6]
  inhibition at 50 µg/mL: 99.1 ± 0.1%
[4]; [5]
  inhibition at 10 µg/mL: 98.3 ± 1.6%
[4]; [6]
  inhibition at 50 µg/mL: 99 ± 1%
